Test results published in patent US8569267B2, “Tetracyclic tetrahydrofuran derivatives containing cyclic amine side chain” (Janssen Pharmaceutica, NV, priority 2005, dated 2013).

Legend:
[1] = target: T1, human Dopamine D2L receptor (Homo sapiens, UniProt P14416); test: In vitro binding affinity for human D2L receptor ([3H]Spiperone binding); conditions: human D2L receptor-transfected CHO cell membranes, read-out: D2L pIC50 (converted)
T1 construct: expressed in transfected cells; host or cells: CHO cells
How it was run: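 Membranes from CHO cells transfected with the receptor were incubated with [3H]Spiperone (diluted to 2 nmol/L before addition) and compound for 30 min at 37° C. Buffer was Tris-HCl, pH 7.7, with NaCl, CaCl2, MgCl2 and KCl, and non-specific binding was defined with 10^−6 mol/l Butaclamol. Bound radioactivity was collected by filtration, counted by scintillation, and competition curves calculated as percent specific binding.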

[2] = target: T2, human cloned 5-HT2C receptor, expressed in CHO cells (Homo sapiens, UniProt P28335); test: In vitro binding affinity for 5-HT2C receptor ([3H]mesulergine radioligand binding); conditions: human cloned 5-HT2C receptor, read-out: 5-HT2C pIC50 (converted)
T2 construct: expressed in transfected cells; host or cells: CHO cells
T2 sequence (P28335 33-458): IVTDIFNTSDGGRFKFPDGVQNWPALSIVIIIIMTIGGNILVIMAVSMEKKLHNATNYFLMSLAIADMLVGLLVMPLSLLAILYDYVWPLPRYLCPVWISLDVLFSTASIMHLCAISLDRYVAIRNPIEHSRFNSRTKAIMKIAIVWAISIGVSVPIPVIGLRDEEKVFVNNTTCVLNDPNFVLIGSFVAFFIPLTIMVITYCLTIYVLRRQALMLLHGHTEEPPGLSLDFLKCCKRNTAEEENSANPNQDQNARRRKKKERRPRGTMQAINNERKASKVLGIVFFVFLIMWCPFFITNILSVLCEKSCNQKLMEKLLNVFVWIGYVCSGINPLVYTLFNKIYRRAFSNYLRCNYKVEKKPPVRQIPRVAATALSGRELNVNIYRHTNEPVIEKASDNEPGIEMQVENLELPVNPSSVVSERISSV
How it was run: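 Competition radioligand binding: varying test-compound concentrations incubated with receptor preparation and radioligand to binding equilibrium. Bound radioactivity separated from free and counted; affinity inferred from concentration-dependent inhibition of radioligand binding.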

[3] = target: T3, human cloned 5-HT2A receptor, expressed in L929 cells (Homo sapiens, UniProt P28223); test: In vitro binding affinity for 5-HT2A receptor ([125I]R91150 radioligand binding); conditions: human cloned 5-HT2A receptor in L929 cells, [125I]R91150; read-out: 5-HT2A pIC50 (converted)
T3 construct: expressed in transfected cells; host or cells: L929 cells
How it was run: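 Competition radioligand binding to human cloned 5-HT2A receptor expressed in L929 cells, using [125I]R91150 with test compound at various concentrations. At equilibrium, receptor-bound radioactivity was separated from free and counted. Affinity reflects inhibition of radioligand binding.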

[4] = target: T4, NET (norepinephrine transporter) (Rattus norvegicus, UniProt Q63380); test: In vitro determination of NET reuptake inhibition ([3H]Nixosetine binding, rat brain cortex); conditions: rat brain cortex, read-out: NET pIC50 (converted)
T4 construct: Cortex from rat brain was collected and homogenised; from tissue; host or cells: rat brain cortex
How it was run: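 Rat cortex homogenised in Tris 50 mM, NaCl 120 mM, KCl 5 mM, pH 7.4 was used for competition binding against [3H]nisoxetine. Bound radioligand was collected by filtration on GF/B filters and counted by scintillation. Percentage specific binding and competition curves were derived.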

T3 sequence (P28223 whole entry): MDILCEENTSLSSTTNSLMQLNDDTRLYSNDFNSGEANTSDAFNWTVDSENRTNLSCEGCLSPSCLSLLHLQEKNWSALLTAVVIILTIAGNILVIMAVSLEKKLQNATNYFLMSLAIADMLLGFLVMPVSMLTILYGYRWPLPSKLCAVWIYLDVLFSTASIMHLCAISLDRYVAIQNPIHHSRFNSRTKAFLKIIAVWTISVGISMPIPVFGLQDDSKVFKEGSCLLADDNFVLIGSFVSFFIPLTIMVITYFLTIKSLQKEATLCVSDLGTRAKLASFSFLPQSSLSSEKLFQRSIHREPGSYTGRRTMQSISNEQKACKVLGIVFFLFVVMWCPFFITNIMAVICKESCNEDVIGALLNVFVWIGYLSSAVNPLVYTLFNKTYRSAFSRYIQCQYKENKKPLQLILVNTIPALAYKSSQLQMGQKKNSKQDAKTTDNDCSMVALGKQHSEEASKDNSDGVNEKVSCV
T4 sequence (Q63380 1-617): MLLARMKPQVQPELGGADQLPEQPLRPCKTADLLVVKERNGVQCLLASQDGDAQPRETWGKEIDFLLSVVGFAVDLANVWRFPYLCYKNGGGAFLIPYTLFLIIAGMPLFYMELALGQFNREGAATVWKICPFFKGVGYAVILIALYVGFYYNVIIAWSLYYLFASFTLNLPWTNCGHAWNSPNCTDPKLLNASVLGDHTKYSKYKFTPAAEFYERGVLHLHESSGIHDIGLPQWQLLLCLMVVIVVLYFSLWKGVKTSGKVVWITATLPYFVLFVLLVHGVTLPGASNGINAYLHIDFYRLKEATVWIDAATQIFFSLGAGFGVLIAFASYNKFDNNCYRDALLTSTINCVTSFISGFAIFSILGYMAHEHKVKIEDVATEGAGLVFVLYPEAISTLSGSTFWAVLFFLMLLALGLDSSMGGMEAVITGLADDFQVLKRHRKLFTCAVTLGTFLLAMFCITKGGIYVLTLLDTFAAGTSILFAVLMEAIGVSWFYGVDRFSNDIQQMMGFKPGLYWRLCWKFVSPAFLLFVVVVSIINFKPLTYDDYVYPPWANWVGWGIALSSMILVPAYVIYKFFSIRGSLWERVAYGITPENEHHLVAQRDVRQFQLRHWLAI
T1 sequence (P14416 whole entry): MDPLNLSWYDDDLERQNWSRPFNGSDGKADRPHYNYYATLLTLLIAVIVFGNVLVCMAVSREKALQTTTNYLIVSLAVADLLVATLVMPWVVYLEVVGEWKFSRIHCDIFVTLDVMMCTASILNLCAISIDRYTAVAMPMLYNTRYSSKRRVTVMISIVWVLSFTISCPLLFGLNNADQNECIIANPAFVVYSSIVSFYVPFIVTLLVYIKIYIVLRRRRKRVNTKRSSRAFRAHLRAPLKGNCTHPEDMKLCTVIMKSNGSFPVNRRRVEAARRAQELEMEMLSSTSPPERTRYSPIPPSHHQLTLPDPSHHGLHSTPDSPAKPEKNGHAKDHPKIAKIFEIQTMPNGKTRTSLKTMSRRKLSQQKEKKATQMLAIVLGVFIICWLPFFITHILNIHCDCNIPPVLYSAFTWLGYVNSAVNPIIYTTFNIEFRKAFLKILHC

SMILES	IC50 [1] [nM]	IC50 [2] [nM]	IC50 [3] [nM]	IC50 [4] [nM]
CN(C)CCC1CN(C[C@H]2C[C@@H]3c4ccccc4Cc4ccc(F)cc4[C@@H]3O2)CCO1 (stereo partly shown) [Compound 132]	389	33.1	33.1	5750
O=C(O)CC1CN(C[C@H]2C[C@@H]3c4ccccc4Cc4ccc(F)cc4[C@@H]3O2)CCO1 (stereo partly shown) [Compound 134]	41.7	1.38	< 10	42.7
CCOC(=O)CC1CN(C[C@H]2C[C@@H]3c4ccccc4Cc4ccc(F)cc4[C@@H]3O2)CCO1 (stereo partly shown) [Compound 135]	32.4	16.6	11.2	2450
CN(C)C(=O)CC1CN(C[C@H]2C[C@@H]3c4ccccc4Cc4ccc(F)cc4[C@@H]3O2)CCO1 (stereo partly shown) [Compound 136]	24.5	3.31	1.58	70.8
OCC1CCCN(C[C@H]2C[C@@H]3c4ccccc4Cc4ccc(F)cc4[C@@H]3O2)C1 (stereo partly drawn) [Compound 147, [2R-(2α, 3aα, 12bβ)]-(3′RS)-[1-(11-fluoro-3,3a,8,12b-tetrahydro-2H-1-oxa-dibenzo[e,h]azulen-2-ylmethyl)-piperidin-3-yl]-methanol.oxalate (1:1)]	4.79	1.26	1.1	> 10000
OCCC1CCN(C[C@H]2C[C@@H]3c4ccccc4Cc4ccc(F)cc4[C@@H]3O2)CC1 [Compound 154]	1.35	1.62	0.912	> 10000
OCCCC1CCN(CC2CC3c4ccccc4Cc4ccc(F)cc4C3O2)CC1 (stereo not drawn) [Compound 155, [2R-(2α, 3aα, 12bβ)]3-[1-(11-fluoro-3,3a,8,12b-tetrahydro-2H-1-oxa-dibenzo[e,h]-azulen-2-ylmethyl)-piperidin-4-yl]-propan-1-ol.oxalate (1:1)]	1.48	2.88	1.51	1860
CCOC(=O)C=C1CCN(CC2CC3c4ccccc4Cc4ccc(F)cc4C3O2)CC1 (stereo not shown) [Compound 165]	38.9	27.5	10.7	3630
N#CCC1CCN(CC2CC3c4ccccc4Cc4ccc(F)cc4C3O2)CC1 (stereo not shown) [Compound 168]	2.82	9.33	3.89	> 10000
N#CCCC1CCN(CC2CC3c4ccccc4Cc4ccc(F)cc4C3O2)CC1 (stereo not shown) [Compound 170]	1.51	2.63	1.82	4270
Fc1ccc2c(c1)C1OC(CN3CCCC(C4=NCCN4)C3)CC1c1ccccc1C2 (stereo not shown) [Compound 171]	282	18.2	28.2	1410
Fc1ccc2c(c1)C1OC(CN3CCC(N4CCCCC4)CC3)CC1c1ccccc1C2 (stereo not shown) [Compound 172]	43.7	15.8	15.1	6760
CC(C)(C)NC(=O)C1CCN(CC2CC3c4ccccc4Cc4ccc(F)cc4C3O2)CC1 (stereo not shown) [Compound 173]	13.2	5.75	0.724	6460
N#CCCNC(=O)C1CCN(CC2CC3c4ccccc4Cc4ccc(F)cc4C3O2)CC1 (stereo not shown) [Compound 174]	15.1	2.19	1.62	> 10000
O=C(NCCCO)C1CCN(CC2CC3c4ccccc4Cc4ccc(F)cc4C3O2)CC1 (stereo not shown) [Compound 175]	18.2	1.74	0.759	> 10000
C=CCN(C)C(=O)C1CCN(CC2CC3c4ccccc4Cc4ccc(F)cc4C3O2)CC1 (stereo not shown) [Compound 177]	11.7	4.47	< 10	9770
CCCCCCCCCCNC(=O)C1CCN(C[C@H]2C[C@@H]3c4ccccc4Cc4ccc(F)cc4[C@@H]3O2)CC1 [Compound 178]	50.1	9.33	< 10	> 10000

Second part, the compound after the results:

IC50 [1] [nM]	IC50 [2] [nM]	IC50 [3] [nM]	IC50 [4] [nM]	SMILES
38	3.8	< 10	> 10000	O=C(NCC(O)CO)C1CCN(CC2CC3c4ccccc4Cc4ccc(F)cc4C3O2)CC1 (stereo not shown) [Compound 179]
37.2	3.89	2.45	> 10000	O=C(NCCCn1ccnc1)C1CCN(CC2CC3c4ccccc4Cc4ccc(F)cc4C3O2)CC1 (stereo not shown) [Compound 180]
57.5	7.59	4.79	> 10000	O=C(NCCN1CCOCC1)C1CCN(CC2CC3c4ccccc4Cc4ccc(F)cc4C3O2)CC1 (stereo not shown) [Compound 181]
25.7	1.15	< 10	> 10000	CSc1ccc(NC(=O)C2CCN(CC3CC4c5ccccc5Cc5ccc(F)cc5C4O3)CC2)cc1 (stereo not shown) [Compound 183]
7.08	2.34	2.4	3550	COc1cc(OC)c(CNC(=O)C2CCN(CC3CC4c5ccccc5Cc5ccc(F)cc5C4O3)CC2)c(OC)c1 (stereo not shown) [Compound 186]
18.2	1.15	0.427	> 10000	O=C(NC1CC1)C1CCN(CC2CC3c4ccccc4Cc4ccc(F)cc4C3O2)CC1 (stereo not shown) [Compound 187]
9.77	2.75	< 10	> 10000	O=C(NC1CCCCC1)C1CCN(CC2CC3c4ccccc4Cc4ccc(F)cc4C3O2)CC1 (stereo not shown) [Compound 188]
47.9	2.75	< 10	> 10000	O=C(Nc1ccc(F)c(Cl)c1)C1CCN(CC2CC3c4ccccc4Cc4ccc(F)cc4C3O2)CC1 (stereo not shown) [Compound 190]
11.7	3.47	< 10	9120	COc1ccc(C)c(NC(=O)C2CCN(CC3CC4c5ccccc5Cc5ccc(F)cc5C4O3)CC2)c1 (stereo not shown) [Compound 191]
11.2	3.8	< 10	7410	O=C(Nc1cccc2cnccc12)C1CCN(CC2CC3c4ccccc4Cc4ccc(F)cc4C3O2)CC1 (stereo not shown) [Compound 192]
15.5	2.63	1.41	5250	O=C(NC1CCCCCC1)C1CCN(CC2CC3c4ccccc4Cc4ccc(F)cc4C3O2)CC1 (stereo not shown) [Compound 193]
25.1	16.2	8.13	7590	O=C(NCCC(c1ccccc1)c1ccccc1)C1CCN(CC2CC3c4ccccc4Cc4ccc(F)cc4C3O2)CC1 (stereo not shown) [Compound 198]
35.5	1.2	6.46	> 10000	CCN(CC)CCN(C)C(=O)C1CCN(CC2CC3c4ccccc4Cc4ccc(F)cc4C3O2)CC1 (stereo not shown) [Compound 199]
15.5	8.13	< 10	> 10000	O=C(C1CCN(CC2CC3c4ccccc4Cc4ccc(F)cc4C3O2)CC1)N1CCC1 (stereo not shown) [Compound 200]
41.7	10.5	0.617	> 10000	O=C(C1CCN(CC2CC3c4ccccc4Cc4ccc(F)cc4C3O2)CC1)N1CC=CC1 (stereo not shown) [Compound 201]
24	8.13	3.47	1620	O=C(C1CCN(CC2CC3c4ccccc4Cc4ccc(F)cc4C3O2)CC1)N1CCN(c2cccc(Cl)c2)CC1 (stereo not shown) [Compound 202]
16.6	3.09	3.63	4470	COc1ccccc1N1CCN(C(=O)C2CCN(CC3CC4c5ccccc5Cc5ccc(F)cc5C4O3)CC2)CC1 (stereo not shown) [Compound 203]
66.1	10.5	3.16	3470	O=C(C1CCN(CC2CC3c4ccccc4Cc4ccc(F)cc4C3O2)CC1)N1CCN(CC=Cc2ccccc2)CC1 (stereo not shown) [Compound 204]
31.6	12	4.68	5250	CC(=O)C1(c2ccccc2)CCN(C(=O)C2CCN(CC3CC4c5ccccc5Cc5ccc(F)cc5C4O3)CC2)CC1 (stereo not shown) [Compound 209]
6.03	12.6	2.95	5750	O=C(NC1CCN(CC2CC3c4ccccc4Cc4ccc(F)cc4C3O2)CC1)c1ccc(Cl)cc1Cl (stereo not shown) [Compound 230]
